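Five concentrations, 48 hours, 96-well plates. Abbreviation: GI50, concentration required for 50% inhibition of growth. TGI is the concentration that stops growth completely.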
Experiments:
Test in all cases: NCI anticancer screen, dose series, 48 h
OVCAR-8 ovarian = system: OVCAR-8 ovarian
SK-MEL-28 melanoma = system: SK-MEL-28 melanoma
COLO 205 colon = system: COLO 205 colon
SN12C renal = system: SN12C renal
BT-549 breast = system: BT-549 breast
CCRF-CEM leukemia = system: CCRF-CEM leukemia
HS 578T breast = system: HS 578T breast
A498 renal = system: A498 renal
UACC-257 melanoma = system: UACC-257 melanoma
NCI-H23 lung = system: NCI-H23 lung
NCI-H522 lung = system: NCI-H522 lung
MDA-MB-435 = system: MDA-MB-435
SK-MEL-2 melanoma = system: SK-MEL-2 melanoma
CAKI-1 renal = system: CAKI-1 renal
ACHN renal = system: ACHN renal
SW-620 colon = system: SW-620 colon
786-0 renal = system: 786-0 renal
HOP-62 NSCLC = system: HOP-62 NSCLC
HCC-2998 colon = system: HCC-2998 colon
RPMI-8226 leukemia = system: RPMI-8226 leukemia
M14 melanoma = system: M14 melanoma
OVCAR-4 ovarian = system: OVCAR-4 ovarian
LOX IMVI melanoma = system: LOX IMVI melanoma
RXF 393 renal = system: RXF 393 renal
TK-10 renal = system: TK-10 renal
SK-OV-3 ovarian = system: SK-OV-3 ovarian
K-562 leukemia = system: K-562 leukemia
SF-539 CNS = system: SF-539 CNS
KM12 colon = system: KM12 colon
HCT-15 colon = system: HCT-15 colon
NCI-H460 lung = system: NCI-H460 lung
NCI/ADR-RES ovarian = system: NCI/ADR-RES ovarian
MOLT-4 leukemia = system: MOLT-4 leukemia
SNB-75 CNS = system: SNB-75 CNS
HOP-92 NSCLC = system: HOP-92 NSCLC
OVCAR-5 ovarian = system: OVCAR-5 ovarian
UACC-62 melanoma = system: UACC-62 melanoma
PC-3 prostate = system: PC-3 prostate
EKVX NSCLC = system: EKVX NSCLC
SR leukemia = system: SR leukemia
A549 NSCLC = system: A549 NSCLC
SF-268 CNS = system: SF-268 CNS
MALME-3M melanoma = system: MALME-3M melanoma
U251 CNS = system: U251 CNS
T-47D breast = system: T-47D breast
SF-295 CNS = system: SF-295 CNS
OVCAR-3 ovarian = system: OVCAR-3 ovarian
DU-145 prostate = system: DU-145 prostate
SK-MEL-5 melanoma = system: SK-MEL-5 melanoma
HT29 colon = system: HT29 colon
SNB-19 CNS = system: SNB-19 CNS
HCT-116 colon = system: HCT-116 colon
HL-60(TB) leukemia = system: HL-60(TB) leukemia
MCF7 breast = system: MCF7 breast

Q: Which GI50 (OVCAR-8 ovarian) does the source give for CC1(C)C(=O)/C(=C\c2cccnc2)C[C@]2(C)[C@H]3CC[C@@H]4[C@H]5[C@H](C(=O)/C=C/c6cccnc6)CC[C@]5(C(=O)O)CC[C@@]4(C)[C@]3(C)CC[C@@H]12 here?
A: The GI50 was 3.5 µM.

Q: And the TGI (OVCAR-8 ovarian)?
A: The TGI was greater than 100 µM.

Q: And the GI50 (SK-MEL-28 melanoma)?
A: The GI50 was 2.16 µM.

Q: And the TGI (SK-MEL-28 melanoma)?
A: Its TGI is 4.39 µM.

Q: And the GI50 (COLO 205 colon)?
A: The GI50 was 2.33 µM.

Q: What about the TGI (COLO 205 colon) of the same molecule?
A: Its TGI is 5.17 µM.

Q: And the GI50 (SN12C renal)?
A: Its GI50 is 2.79 µM.

Q: What about the TGI (SN12C renal) of the same molecule?
A: The TGI was 9.76 µM.

Q: What about the GI50 (BT-549 breast) of the same molecule?
A: Its GI50 is 1.95 µM.

Q: What about the TGI (BT-549 breast) of the same molecule?
A: The TGI was 4.41 µM.

Q: And the GI50 (CCRF-CEM leukemia)?
A: The GI50 was 1.44 µM.

Q: What about the TGI (CCRF-CEM leukemia) of the same molecule?
A: The TGI was 8.07 µM.

Q: What about the GI50 (HS 578T breast) of the same molecule?
A: The GI50 was 7.61 µM.

Q: And the TGI (HS 578T breast)?
A: Its TGI is greater than 100 µM.

Q: What about the GI50 (A498 renal) of the same molecule?
A: The GI50 was 1.92 µM.

Q: And the TGI (A498 renal)?
A: Its TGI is 3.44 µM.

Q: What about the GI50 (UACC-257 melanoma) of the same molecule?
A: The GI50 was 1.88 µM.

Q: And the TGI (UACC-257 melanoma)?
A: The TGI was 4.25 µM.

Q: What about the GI50 (NCI-H23 lung) of the same molecule?
A: The GI50 was 2.06 µM.

Q: What about the TGI (NCI-H23 lung) of the same molecule?
A: Its TGI is 4.87 µM.

Q: And the GI50 (NCI-H522 lung)?
A: Its GI50 is 2.35 µM.

Q: And the TGI (NCI-H522 lung)?
A: Its TGI is 5.99 µM.

Q: What about the GI50 (MDA-MB-435) of the same molecule?
A: The GI50 was 3.2 µM.

Q: And the TGI (MDA-MB-435)?
A: The TGI was 12.9 µM.

Q: What about the GI50 (SK-MEL-2 melanoma) of the same molecule?
A: Its GI50 is 2.54 µM.

Q: And the TGI (SK-MEL-2 melanoma)?
A: Its TGI is 6.66 µM.

Q: And the GI50 (CAKI-1 renal)?
A: Its GI50 is 1.66 µM.

Q: And the TGI (CAKI-1 renal)?
A: Its TGI is 3.38 µM.

Q: And the GI50 (ACHN renal)?
A: The GI50 was 1.69 µM.

Q: What about the TGI (ACHN renal) of the same molecule?
A: Its TGI is 3.06 µM.

Q: And the GI50 (SW-620 colon)?
A: Its GI50 is 2.79 µM.

Q: What about the TGI (SW-620 colon) of the same molecule?
A: The TGI was 10.3 µM.

Q: And the GI50 (786-0 renal)?
A: Its GI50 is 2.36 µM.

Q: What about the TGI (786-0 renal) of the same molecule?
A: The TGI was 5.41 µM.

Q: And the GI50 (HOP-62 NSCLC)?
A: The GI50 was 1.89 µM.

Q: And the TGI (HOP-62 NSCLC)?
A: The TGI was 4.5 µM.

Q: And the GI50 (HCC-2998 colon)?
A: Its GI50 is 1.88 µM.

Q: And the TGI (HCC-2998 colon)?
A: The TGI was 3.55 µM.

Q: What about the GI50 (RPMI-8226 leukemia) of the same molecule?
A: The GI50 was 1.88 µM.

Q: What about the TGI (RPMI-8226 leukemia) of the same molecule?
A: The TGI was 7.28 µM.

Q: What about the GI50 (M14 melanoma) of the same molecule?
A: Its GI50 is 2.64 µM.

Q: What about the TGI (M14 melanoma) of the same molecule?
A: The TGI was 8.97 µM.

Q: And the GI50 (OVCAR-4 ovarian)?
A: Its GI50 is 4.37 µM.

Q: What about the TGI (OVCAR-4 ovarian) of the same molecule?
A: Its TGI is greater than 100 µM.

Q: What about the GI50 (LOX IMVI melanoma) of the same molecule?
A: Its GI50 is 1.74 µM.

Q: What about the TGI (LOX IMVI melanoma) of the same molecule?
A: The TGI was 3.6 µM.

Q: And the GI50 (RXF 393 renal)?
A: Its GI50 is 1.67 µM.

Q: What about the TGI (RXF 393 renal) of the same molecule?
A: The TGI was 3.1 µM.

Q: And the GI50 (TK-10 renal)?
A: The GI50 was 3.57 µM.

Q: And the TGI (TK-10 renal)?
A: The TGI was 10.9 µM.

Q: And the GI50 (SK-OV-3 ovarian)?
A: Its GI50 is 3.82 µM.

Q: And the TGI (SK-OV-3 ovarian)?
A: Its TGI is 14.5 µM.

Q: What about the GI50 (K-562 leukemia) of the same molecule?
A: Its GI50 is 2.05 µM.

Q: What about the TGI (K-562 leukemia) of the same molecule?
A: Its TGI is 20.5 µM.

Q: And the GI50 (SF-539 CNS)?
A: The GI50 was 1.9 µM.

Q: What about the TGI (SF-539 CNS) of the same molecule?
A: The TGI was 3.92 µM.

Q: And the GI50 (KM12 colon)?
A: The GI50 was 1.73 µM.

Q: What about the TGI (KM12 colon) of the same molecule?
A: The TGI was 3.64 µM.

Q: What about the GI50 (HCT-15 colon) of the same molecule?
A: Its GI50 is 1.76 µM.

Q: And the TGI (HCT-15 colon)?
A: The TGI was 4.54 µM.

Q: What about the GI50 (NCI-H460 lung) of the same molecule?
A: Its GI50 is 2.12 µM.

Q: What about the TGI (NCI-H460 lung) of the same molecule?
A: The TGI was 6.69 µM.

Q: And the GI50 (NCI/ADR-RES ovarian)?
A: Its GI50 is 3.08 µM.

Q: And the TGI (NCI/ADR-RES ovarian)?
A: Its TGI is greater than 100 µM.

Q: And the GI50 (MOLT-4 leukemia)?
A: Its GI50 is 2.22 µM.

Q: What about the TGI (MOLT-4 leukemia) of the same molecule?
A: The TGI was 11.5 µM.

Q: And the GI50 (SNB-75 CNS)?
A: The GI50 was 4.01 µM.

Q: What about the TGI (SNB-75 CNS) of the same molecule?
A: Its TGI is 44.2 µM.

Q: What about the GI50 (HOP-92 NSCLC) of the same molecule?
A: The GI50 was 2.31 µM.

Q: What about the TGI (HOP-92 NSCLC) of the same molecule?
A: Its TGI is 7.64 µM.

Q: What about the GI50 (OVCAR-5 ovarian) of the same molecule?
A: Its GI50 is 2.44 µM.

Q: What about the TGI (OVCAR-5 ovarian) of the same molecule?
A: Its TGI is 4.88 µM.

Q: What about the GI50 (UACC-62 melanoma) of the same molecule?
A: Its GI50 is 2.03 µM.

Q: What about the TGI (UACC-62 melanoma) of the same molecule?
A: Its TGI is 4.02 µM.

Q: And the GI50 (PC-3 prostate)?
A: The GI50 was 2.41 µM.

Q: And the TGI (PC-3 prostate)?
A: The TGI was 8.58 µM.

Q: And the GI50 (EKVX NSCLC)?
A: Its GI50 is 2.11 µM.

Q: And the TGI (EKVX NSCLC)?
A: The TGI was 4.92 µM.

Q: What about the GI50 (SR leukemia) of the same molecule?
A: The GI50 was 2.03 µM.

Q: And the TGI (SR leukemia)?
A: The TGI was 29.7 µM.

Q: What about the GI50 (A549 NSCLC) of the same molecule?
A: Its GI50 is 2.14 µM.

Q: What about the TGI (A549 NSCLC) of the same molecule?
A: Its TGI is 5.11 µM.

Q: And the GI50 (SF-268 CNS)?
A: The GI50 was 2.15 µM.

Q: And the TGI (SF-268 CNS)?
A: Its TGI is 5.46 µM.

Q: What about the GI50 (MALME-3M melanoma) of the same molecule?
A: The GI50 was 2 µM.

Q: And the TGI (MALME-3M melanoma)?
A: Its TGI is 4.46 µM.

Q: What about the GI50 (U251 CNS) of the same molecule?
A: The GI50 was 1.74 µM.

Q: And the TGI (U251 CNS)?
A: Its TGI is 3.26 µM.

Q: What about the GI50 (T-47D breast) of the same molecule?
A: The GI50 was 3.75 µM.

Q: And the TGI (T-47D breast)?
A: The TGI was 24.6 µM.

Q: What about the GI50 (SF-295 CNS) of the same molecule?
A: The GI50 was 2.22 µM.

Q: And the TGI (SF-295 CNS)?
A: The TGI was 5.59 µM.

Q: What about the GI50 (OVCAR-3 ovarian) of the same molecule?
A: Its GI50 is 1.76 µM.

Q: And the TGI (OVCAR-3 ovarian)?
A: The TGI was 3.42 µM.

Q: And the GI50 (DU-145 prostate)?
A: The GI50 was 2.1 µM.

Q: What about the TGI (DU-145 prostate) of the same molecule?
A: The TGI was 5 µM.

Q: What about the GI50 (SK-MEL-5 melanoma) of the same molecule?
A: The GI50 was 1.8 µM.

Q: What about the TGI (SK-MEL-5 melanoma) of the same molecule?
A: The TGI was 3.22 µM.

Q: What about the GI50 (HT29 colon) of the same molecule?
A: The GI50 was 3.09 µM.

Q: What about the TGI (HT29 colon) of the same molecule?
A: The TGI was 10.8 µM.

Q: What about the GI50 (SNB-19 CNS) of the same molecule?
A: Its GI50 is 2.34 µM.

Q: And the TGI (SNB-19 CNS)?
A: Its TGI is 5.69 µM.

Q: What about the GI50 (HCT-116 colon) of the same molecule?
A: The GI50 was 1.61 µM.

Q: And the TGI (HCT-116 colon)?
A: Its TGI is 3.56 µM.

Q: And the GI50 (HL-60(TB) leukemia)?
A: Its GI50 is 1.95 µM.

Q: What about the TGI (HL-60(TB) leukemia) of the same molecule?
A: The TGI was 5.27 µM.

Q: And the GI50 (MCF7 breast)?
A: The GI50 was 2.56 µM.

Q: And the TGI (MCF7 breast)?
A: Its TGI is 10.7 µM.
